Data: US10184129B2, “Method and compositions to promote plant growth in metal contaminated environments” (The Regents of the University of California, priority 2011, dated 2019)
Entries after “also recorded” stand apart in the source; their conditions may differ.

Test system: Col-0 wt and als7-1/swa2-2 roots
Assay: Root growth of seedlings in a hydroponic environment supplemented with AlCl3 (pH 4.2)
Assay type: in vivo, Arabidopsis
Settings: for increase in root growth: pH 4.2
Description: Seedlings of Col-0 wt and als7-1/swa2-2 were grown for 7 d hydroponically either in the absence or presence 25 μM AlCl3 (pH 4.2), after which root tissue was collected for analysis of spermine content by HPLC. […] Seedlings of Col-0 wt and als7-1/swa2-2 were grown in a hydroponic environment either in the absence or presence of 25 μM AlCl3 (pH 4.2) with or without 25 μM spermine. After 7 d growth, root length was measured for all treatments, with mean±SE values determined from 30 roots of each. […] Seedlings of Col-0 wt were grown either in the absence or presence of 1.5 mM DEMO in a hydroponic environment supplemented with increasing concentrations of AlCl3 (pH 4.2). After 7 d, root length was measured for all treatments, with mean±SE values determined from 30 roots of each. […] Seedlings of Col-0 wt were grown hydroponically either in the absence or presence of 25 μM spermine for 5 d after which the samples were transferred to a solution with or without 25 μM AlCl3 (pH 4.2) containing either 0 or 25 μM spermine. Following 2 d of growth, root tissue was collected and treated for measurement of Al content by ICP-OES.
For all growth experiments performed, Col-0 wt and mutant seeds were surface-sterilized with household bleach and cold stratified for 4 d at 4° C. in the dark for synchronization of germination. Seeds were subsequently suspended in 0.15% (w/v) agarose and for planting on either soaked gel plates or hydroponic plates. Further description of the growth experiments can be found in Larsen, P. B., Geisler, M. J. B., Jones, C. A., Williams, K. M., and Cancel, J. D. (2005), ALS3 encodes a phloem-localized ABC transporter-like protein that is required for aluminum tolerance in Arabidopsis. Plant J. 41, 353-63. All growth analyses were done in a Percival 136LLVL plant growth chamber under a 24 hr light cycle at 20° C. Adult plants were grown in soil under a 24 hr light cycle at 20° C. in a plant growth room supplemented with Sylvania Gro-Lite® fluorescent bulbs.

## NCCCNCCCCNCCCN [spermine]
Col-0 wt and als7-1/swa2-2 seedlings, 25 μM spermine, 25 μM AlCl3 pH 4.2, hydroponic, 7 d
  root growth in the presence of Al (in words): increases root growth; also recorded: substantial increase in root growth
Col-0 wt, 25 μM spermine, 25 or 50 μM AlCl3, hydroponic, 7 d
  increase in root growth: ≥ 6 fold
Col-0 wt, spermine added, 25 or 50 μM AlCl3, hydroponic
  root growth compared to untreated controls (in words): remained significantly inhibited
als7-1/swa2-2, 25 μM spermine, 25 or 50 μM AlCl3, hydroponic, 7 d
  increase in root growth: ≥ 6 fold
als7-1/swa2-2, spermine added, 25 or 50 μM AlCl3, hydroponic
  root growth in the presence of Al (in words): almost full restoration
